Experimental data published in patent publication US8642337B2, “Defined surfaces of self-assembled monolayers and stem cells” (Wisconsin Alumni Research Foundation, priority 2005, dated 2014).
No end group written: not given here.

How the values were obtained:
[1] = tested on: SH-SY5Y neuroblastoma cells; assay: Neuroblastoma adhesion on patterned SAM chips/arrays; type: cell-based
Description: (§1) General Preparation of the Arrays of Self-Assembled Monolayers (Assembly After Conjugation Strategy): Chromium (1 nm) and then gold (25 nm) were evaporated onto piranha-cleaned glass coverslips (Corning No […], 23 mm squares) using a thermal evaporator (Denton Vacuum, Moorestown, N.J.). Substrates were immediately immersed into a 1 mM solution of fluoro-AT in absolute ethanol. After twenty-four hours, substrates were thoroughly rinsed with ethanol and dried under a stream of nitrogen. Coverslips with fluoro-AT SAM were irradiated with UV-light (1 kW, Hg—Xe Research Arc Lamp, Oriel Instruments (Spectra-Physics, Stratford, Conn.) through a quartz photomask (array of 500 μm or 750 μm squares, 0.067 quartz-chromium mask (Photo Sciences, Torrance, Calif.)) for 1 hour. Irradiated samples were rinsed thoroughly using several repetitive washes with absolute ethanol and distilled water and dried under a steam of nitrogen. Spotting of AT solutions onto the bare gold areas was performed within two hours of the photolithography. Spotting was performed manually using a P2-Pipetman (Gilson) in a humidity chamber. Spotted arrays were stored in the humidity chamber for twelve hours and thoroughly washed using repeated washes with ethanol and water. Rapid flow during washing was used to prevent cross-contamination of array spots.
Cell Culture: A neuroblastoma cell line, SH-SY5Y, was grown in 10% heat-inactivated fetal bovine serum (HI FBS), 45% high glucose Dulbecco's modified Eagle medium (DMEM), 45% Ham's F12 nutritional supplement (F12) with penicillin and streptomycin in an atmosphere of 5% CO2 at 37° C. A fibroblast cell line, Swiss 3T3, was propagated in 10% HI FBS in DMEM. For plating of the cells on the chips, cells were incubated at 37° C. with 5% trypsin/ethylenediamine-tetraacetic acid (EDTA), centrifuged and resuspended in media at 2×10^5 cells/mL and 5×10^5 cells/mL for the fibroblasts and neuroblastomas, respectively. Chips were sterilized by placing each in a single well of a 6-well plate, soaking in 70% ethanol, and drying under UV light for 1 hour. To the individual chips was added 3 mL of the cell suspensions to each well. After 2-5 hours, the media was gently replaced three times and the chips were picked up, transferred to a clean well and 3 mL of media was added. The cells on the chips were typically propagated between 1-7 days. The media was then removed, and the cells were fixed in PFA buffer (2% paraformaldehyde, 350 mM NaCl, 150 mM HEPES, 10 mM CaCl2, pH 7.4) for 20 minutes at 0° C. The cells were washed twice with Dulbecco's phosphate buffered saline and stained (0.1% Coomassie Brilliant Blue in H2O/MeOH/AcOH (50:50:1)) for 5-15 minutes after which the cells were washed twice with water and air dried. […]

[2] = tested on: Swiss 3T3 fibroblast cells; assay: Fibroblast adhesion on patterned SAM chips/arrays; type: cell-based
Description: as §1
Cell Culture: A neuroblastoma cell line, SH-SY5Y, was grown in 10% heat-inactivated fetal bovine serum (HI FBS), 45% high glucose Dulbecco's modified Eagle medium (DMEM), 45% Ham's F12 nutritional supplement (F12) with penicillin and streptomycin in an atmosphere of 5% CO2 at 37° C. A fibroblast cell line, Swiss 3T3, was propagated in 10% HI FBS in DMEM. For plating of the cells on the chips, cells were incubated at 37° C. with 5% trypsin/ethylenediamine-tetraacetic acid (EDTA), centrifuged and resuspended in media at 2×10^5 cells/mL and 5×10^5 cells/mL for the fibroblasts and neuroblastomas, respectively. Chips were sterilized by placing each in a single well of a 6-well plate, soaking in 70% ethanol, and drying under UV light for 1 hour. […]

hES cells = assay: FACS analysis of ES cells proliferated on large areas presenting synthetic substrates (one-component SAMs); type: cell-based, human; settings: for Oct4 (% population): FACS, ES cells on one-component SAMs on 22×22 mm gold-coated substrates, after 1 week
Source text: Examination of the cell population within an array element provides a semi-quantitative indication of differentiation state of the ES cells. More rigorous analysis involves fluorescence-activated cell sorting (FACS) measurements to identify what population of the cells express specific markers of pluripotent stem cells. Therefore, we proliferated hES cells on gold-coated substrates of larger area (22×22 mm) containing one-component SAMs. FIG. 2a illustrate a representative FACS analysis of an ES cell population grown on a synthetic substrate after 1 week. Table 1 outlines the percentages of Oct4 positive cells obtained from each particular substrate. […] Specifically, we tested hES cell line H9 grown in synthetic media supplemented with high concentrations of basic FGF (referred to as UM100, indicating presence of […] of FGF-2 among the other components). Importantly, these conditions support growth of undifferentiated hES cells on Matrigel®.

hES cells (H1B) = assay: Differentiation experiment: Oct-4 immunofluorescence on peptide surface arrays; type: cell-based, human; settings: cultured on arrays thirteen days
Source text: Differentiation Experiment: SIDQVEPYSSTAQ (FGF, SEQ ID NO:8) is known to bind FGF receptor. FGF signaling, in turn, can suppress hES cell differentiation. […] (SEQ ID NO:9) is known to bind BMP-receptor. BMP signaling induces hES cell differentiation. KKQRFRHRNRKG (VHB, SEQ ID NO:10) is a heparin binding motif from vitronectin. Vitronectin supports hES cell adhesion. RGD peptide is known to bind cell surface receptors (integrins) involved in adhesion of various cell types.
hES cells (H1B) were passaged using the protease dispase from Matrigel® to the peptide surface arrays described above containing either BMP/RGD, BMP/VHB, FGF, FGF/RGD or FGF/VHB at various concentrations. hES cells were cultured on the arrays for thirteen days, fixed and stained by immunofluorescence. The cells were stained for a marker of pluripotency, Oct-4 (Green), and counterstained with DAPI (Blue).

hES cells (H1 and H9) = assay: hES cell adhesion and growth screen on arrays of SAMs presenting peptides; type: cell-based, human; settings: for Ability to support ES cell growth: laminin fragment screen on SAM array
Description: Human Embryonic Stem Cell Propagation and Plating: The human ES cell line, H1, was grown on Matrigel®-coated plates in MEF-CM supplemented with 4 ng/mL basic fibroblast growth factor (bFGF). To produce CM, MEFs were seeded at a density of 2.12×10^5 cells/mL and fed medium consisting of DMEM/F12, 20% Knockout™ serum replacement, 2 mM L-glutamine, 1% minimal essential media nonessential amino acids and 0.1 mM β-mercaptoethanol. Both cell lines (H1 and MEF) were maintained at 37° C./5% CO2 with CM collected, and cells fed approximately every 24 hours. Cell suspensions were made by treating with collagenase IV (1 mg/mL) for 10-12 minutes. The cells were scraped from the surface and suspended in CM.
Chips were sterilized as described above. To aid in ES cell patterning, the chips were then soaked in DMEM/F12 with 15% defined FBS for 1-2 hours and washed thoroughly. Then cells were plated on each chip (1-2×10^6 cells/chip) and allowed to incubate overnight. The next morning the chips were moved to fresh wells and fed with CM.
Test for alkaline phosphatase activity: The procedure for staining for alkaline phosphatase activity was essentially identical to the procedure supplied by the manufacturer. After propagation of the ES cells, the media was removed. The reagents in 100 mM Tris pH 8.5 were incubated with the chips for 30 minutes at 25° C. The chips were washed gently for 5 min with Tris buffer and then fixed and dried as usual.
We tested arrays of SAMs presenting a number of short peptides for their ability to support the growth of undifferentiated hES cells. The screen was done with the array presenting square elements of 0.5×0.5 mm (FIG. 1b) or 0.8×0.8 mm size (FIG. 1c). The 0.5×0.5 mm allowed 196 binding elements to be located on a single 22 mm square chip, and in turn the chip can easily fit in one well of a six-well culture plate. The ability of microarrays to localize multiple experiments to same a solution environment is invaluable for applications requiring frequent maintenance. For example, cultures of undifferentiated ES cell require daily changes of growth media. These changes can be easily performed on the entire microarray in one large well of a cell culture plate. For comparison, daily maintenance of experiments, on the same scale, performed in two 96-well plates, while practical, would require either significant human labor or specialized robotic equipment to function in a sterile environment to perform daily maintenance.
Cells grown on Matrigel® were detached using collagenase treatment and were plated on the microarray chip in the presence of CM. After twenty-four hours, media was replaced to remove dead and non-adherent cells. Attached cells were allowed to proliferate on the chip for five to six days and were supplement with fresh conditioned growth media daily. The experiment was stopped once cells reached 100% density in several (but not all) array elements. If continued, the cells in the array elements presenting 100% cell density usually detached, yielding square-shaped sheets of cells floating in solution, while cells in the other elements continued proliferation (not shown). This observation is consistent with those made earlier indicating cell growth variability in multi-component arrays and importance of the balanced duration of the experiment. Once the experiment was stopped, the cells were fixed and stained for markers of hES cell pluripotency. […]

O=C(O)COCCOCCOCCOCCOCCCCCCCCCCCS [PEG acid-AT]
Measured cell adhesion versus mole fraction of acid ([1]; SH-SY5Y, PEG acid-AT diluted with polyol-AT in spotting solutions): decreased as the mole fraction of the acid in the spotting solutions approached 0.2 | Cell binding to spotted SAM ([1]; SH-SY5Y, SAMs formed by spotting AT solutions on bare gold squares): cells affixed to only the expected cytophilic surface | Cell growth on surface ([1]; SH-SY5Y, chips with fluoro-AT SAM background and PEG acid-AT squares made by immersion): dense squares of cells | Measured cell adhesion versus mole fraction of acid ([2]; Swiss 3T3, PEG acid-AT diluted with polyol-AT in spotting solutions): decreased as the mole fraction of the acid in the spotting solutions approached 0.2 | Cell growth on surface ([2]; Swiss-3T3, chips with fluoro-AT SAM background and PEG acid-AT squares made by immersion): dense squares of cells

DIRVTLNRL (not fully specified (C-terminus); also: alkane thiol SAM)
Oct4 (% population) (hES cells): 99.62 % population

DITYVRLKF (not fully specified (C-terminus); also: alkane thiol SAM)
Oct4 (% population) (hES cells): 99.78 % population | Oct4 expression by FACS (hES cells; hES cell line H9, UM100 media (100 mg/ml of FGF-2), 1 week of culture): high level of Oct4 expression

FGF: peptide known to bind FGF receptor (SIDQVEPYSSTAQ)
hES cell self-renewal / Oct-4 expression (hES cells (H1B)): no longer express Oct-4

GNRWHSIYITRFG
Ability to support ES cell growth (hES cells (H1 and H9)): support ES cell growth

GRNIAEIIKDI (not fully specified (C-terminus); also: alkane thiol SAM)
Cell binding to peptide on surface density gradient array (hES cells (H1 and H9); H1 cells, peptide-AT co-assembled with glucamine-AT): exhibits specific binding | Oct4 (% population) (hES cells): 98.12 % population

GRYVVLPR (not fully specified (C-terminus); also: alkane thiol SAM)
Oct4 (% population) (hES cells): 98.99 % population

SDPGYIGSR (not fully specified (C-terminus); also: SAM immobilized) [laminin peptide containing YIGSR recognition motif, presented on SAM in either orientation]
ES cell adhesion (hES cells (H1 and H9); N-to-C orientation exposing YIGSR moiety): supports cell adhesion for ES cells, albeit with moderate reproducibility | ES cell adhesion (hES cells (H1 and H9); switched surface orientation, exposing SDPG-portion, same plating environment): obliterates cell adhesion

YIGSR: sequence found in the matrix protein laminin, presented as peptide-AT array element (not fully specified (C-terminus); also: AT array conjugate) [reference compound]
Cell adherence to peptide array element ([1]; neuroblastoma cells, mixtures of polyol-AT and peptide-AT spotted): adhered | Ability to support ES cell growth (hES cells (H1 and H9)): support ES cell growth | Cell binding to peptide array element ([2]; fibroblasts, mixtures of polyol-AT and peptide-AT spotted): bound modestly
